Experimental data as given in patent publication EP0938471B1, “THE PREPARATION AND USE OF ORTHO-SULFONAMIDO ARYL HYDROXAMIC ACIDS AS MATRIX METALLOPROTEINASE AND TACE INHIBITORS” (priority 1996, dated 1998).
Structures can show the parent of a compound that is named as a salt. Where two headings read alike, the source gives them in different places.

Key:
Format in all cases: biochemical
MMP-1 = biological target: T1, MMP-1 (Homo sapiens, UniProt P03956); test: MMP-1 inhibition (thiopeptide or fluorescent peptide substrate assay); details: for IC50: read-out: MMP-1 IC50
T1 sequence (P03956 100-469): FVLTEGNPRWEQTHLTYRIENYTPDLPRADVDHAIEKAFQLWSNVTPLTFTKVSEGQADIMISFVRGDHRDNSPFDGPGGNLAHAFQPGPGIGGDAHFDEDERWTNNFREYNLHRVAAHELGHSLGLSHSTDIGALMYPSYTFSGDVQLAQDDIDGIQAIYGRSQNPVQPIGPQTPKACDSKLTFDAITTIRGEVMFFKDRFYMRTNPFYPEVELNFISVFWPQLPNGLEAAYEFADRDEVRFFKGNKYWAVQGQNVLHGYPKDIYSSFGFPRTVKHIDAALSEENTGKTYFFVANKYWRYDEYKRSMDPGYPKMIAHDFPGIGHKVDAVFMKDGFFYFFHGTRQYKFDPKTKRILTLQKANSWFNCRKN
Experimental: The enzyme activity is measured by the rate of the color increase. The thiopeptide substrate is made up fresh as a 20 mM stock in 100% DMSO and the DTNB is dissolved in 100% DMSO as a 100 mM stock and stored in the dark at room temperature. Both the substrate and DTNB are diluted together to 1 mM with substrate buffer (50 mM HEPES pH 7.5, 5 mM CaCl2) before use. The stock of enzyme is diluted with assay buffer (50 mM HEPES, pH 7.5, 5 mM CaCl2, 0.02% Brij) to the desired final concentration.
Alternatively, a fluorescent peptide substrate is used. In this assay, the peptide substrate contains a fluorescent group and a quenching group. Upon cleavage of the substrate by an MMP, the fluorescence that is generated is quantitated on the fluorescence plate reader. The assay is run in HCBC assay buffer (50mM HEPES, pH 7.0, 5 mM Ca^+2, 0.02% Brij, 0.5% Cysteine), with human recombinant MMP-1, MMP-9, or MMP-13. The substrate is dissolved in methanol and stored frozen in 1 mM aliquots. For the assay, substrate and enzymes are diluted in HCBC buffer to the desired concentrations. Compounds are added to the 96 well plate containing enzyme and the reaction is started by the addition of substrate.
For either the thiopeptide or fluorescent peptide assays, the slope of the line is calculated and represents the reaction rate. The linearity of the reaction rate is confirmed (r^2 >0.85). The mean (x±sem) of the control rate is calculated and compared for statistical significance (p<0.05) with drug-treated rates using Dunnett's multiple comparison test.

MMP-9 = MMP-9 (Homo sapiens, UniProt P14780); test: MMP-9 inhibition (thiopeptide or fluorescent peptide substrate assay); details: read-out: MMP-9 IC50
Experimental: (§1) The enzyme activity is measured by the rate of the color increase. The thiopeptide substrate is made up fresh as a 20 mM stock in 100% DMSO and the DTNB is dissolved in 100% DMSO as a 100 mM stock and stored in the dark at room temperature. Both the substrate and DTNB are diluted together to 1 mM with substrate buffer (50 mM HEPES pH 7.5, 5 mM CaCl2) before use. […] Alternatively, a fluorescent peptide substrate is used. In this assay, the peptide substrate contains a fluorescent group and a quenching group. Upon cleavage of the substrate by an MMP, the fluorescence that is generated is quantitated on the fluorescence plate reader. […] The substrate is dissolved in methanol and stored frozen in 1 mM aliquots. For the assay, substrate and enzymes are diluted in HCBC buffer to the desired concentrations. Compounds are added to the 96 well plate containing enzyme and the reaction is started by the addition of substrate. […] For either the thiopeptide or fluorescent peptide assays, the slope of the line is calculated and represents the reaction rate. […] The mean (x±sem) of the control rate is calculated and compared for statistical significance (p<0.05) with drug-treated rates using Dunnett's multiple comparison test.

MMP-13 = MMP-13 (Homo sapiens, UniProt P45452); test: MMP-13 inhibition (thiopeptide or fluorescent peptide substrate assay)
Experimental: as §1

TACE = TACE (Homo sapiens, UniProt P78536); test: TACE inhibition (fluorescent peptidyl substrate)
Chain of TACE (P78536 215-824): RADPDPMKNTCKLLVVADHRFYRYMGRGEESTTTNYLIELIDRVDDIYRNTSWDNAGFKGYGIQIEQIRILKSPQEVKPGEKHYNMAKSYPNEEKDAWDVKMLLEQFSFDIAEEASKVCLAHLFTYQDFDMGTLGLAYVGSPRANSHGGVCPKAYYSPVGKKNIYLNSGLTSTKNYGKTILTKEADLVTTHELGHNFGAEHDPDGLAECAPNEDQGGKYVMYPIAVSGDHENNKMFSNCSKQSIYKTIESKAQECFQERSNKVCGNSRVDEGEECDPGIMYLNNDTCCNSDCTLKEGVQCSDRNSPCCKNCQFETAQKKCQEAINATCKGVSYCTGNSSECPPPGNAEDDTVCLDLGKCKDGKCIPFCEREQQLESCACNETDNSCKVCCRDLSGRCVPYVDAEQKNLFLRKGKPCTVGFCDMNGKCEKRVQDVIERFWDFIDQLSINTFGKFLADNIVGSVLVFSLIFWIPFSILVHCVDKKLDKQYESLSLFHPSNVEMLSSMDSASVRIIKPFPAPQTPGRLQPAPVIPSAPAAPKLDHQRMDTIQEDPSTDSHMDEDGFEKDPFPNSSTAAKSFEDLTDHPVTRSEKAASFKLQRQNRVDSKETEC
Experimental: Using 96-well black microtiter plates, each well receives a solution composed of 10 µL TACE (Immunex, final concentration 1µg/mL), 70µL Tris buffer, pH 7.4 containing 10% glycerol (final concentration 10 mM), and 10 µL of test compound solution in DMSO (final concentration 1µM, DMSO concentration <1%) and incubated for 10 minutes at room temperature.
The reaction is read (excitation 340 nm, emission 420 nm) for 10 min. and the increase in fluorescence over time is plotted as a linear line. The slope of the line is calculated and represents the reaction rate.
The linearity of the reaction rate is confirmed (r^2 >0.85). The mean (x±sem) of the control rate is calculated and compared for statistical significance (p<0.05) with drug-treated rates using Dunnett's multiple comparison test.

Chain of MMP-9 (P14780 94-707): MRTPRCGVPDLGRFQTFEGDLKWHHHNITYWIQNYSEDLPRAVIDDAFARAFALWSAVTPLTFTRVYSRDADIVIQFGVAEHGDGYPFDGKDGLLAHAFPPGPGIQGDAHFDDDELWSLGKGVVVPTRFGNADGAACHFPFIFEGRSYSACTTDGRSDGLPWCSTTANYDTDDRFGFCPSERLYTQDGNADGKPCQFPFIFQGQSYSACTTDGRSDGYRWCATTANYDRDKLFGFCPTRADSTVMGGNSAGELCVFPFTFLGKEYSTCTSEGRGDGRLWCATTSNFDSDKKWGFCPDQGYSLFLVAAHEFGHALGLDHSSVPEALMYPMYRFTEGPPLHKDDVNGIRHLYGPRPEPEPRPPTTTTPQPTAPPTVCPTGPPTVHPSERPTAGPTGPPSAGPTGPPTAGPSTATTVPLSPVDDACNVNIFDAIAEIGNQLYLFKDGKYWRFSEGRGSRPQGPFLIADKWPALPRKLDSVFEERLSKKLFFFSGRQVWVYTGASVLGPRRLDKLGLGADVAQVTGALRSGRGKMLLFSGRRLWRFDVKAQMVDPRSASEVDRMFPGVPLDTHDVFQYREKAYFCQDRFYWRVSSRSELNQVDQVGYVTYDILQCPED

Compound | IC50 (MMP-1) | IC50 (MMP-9) | IC50 (MMP-13; read-out: MMP-13 IC50) | IC50 (TACE; read-out: TACE IC50) | IC50 (MMP-13) | IC50 (TACE) | inhibition at 1 µM (MMP-1; read-out: MMP-1 % inhibition, footnote: 1µM)
Cc1cc(C)c(N(Cc2ccccc2)S(=O)(=O)c2ccc(F)cc2)c(C(=O)NO)c1 [Example 69, 2-[Benzyl-(4-fluoro-benzenesulfonyl)-amino]-N-hydroxy-3,5-dimethyl-benzamide] | 153 nM | 874 nM | 1370 nM | > 1000 nM | – | – | –
COc1ccc(S(=O)(=O)N(Cc2cccnc2)c2c(C)cc(-c3ccccc3C=NO)cc2C(=O)NO)cc1 [Example 243, 2'-(Hydroxyimino-methyl)-4-[(4-methoxy-benzenesulfonyl)-pyridin-3-ylmethyl-amino]-5-methyl-biphenyl-3-carboxylic acid hydroxyamide] | 528 nM | 6.6 nM | 3.1 nM | 66 nM | – | – | –
COc1ccc(-c2cc(C)c(N(Cc3cccnc3)S(=O)(=O)c3ccc(OC)cc3)c(C(=O)NO)c2)cc1 [Example 401, 4'-Methoxy-4-[(4-methoxy-benzenesulfonyl)-pyridin-3-ylmethyl-amino]-5-methyl-biphenyl-3-carboxylic acid hydroxyamide hydrochloride salt] | 176 nM | 1.4 nM | 2.8 nM | 146 nM | – | – | –
COc1ccc(S(=O)(=O)N(C)c2c(Cn3ccnc3)cccc2C(=O)NO)cc1 [Example 311, N-Hydroxy-3-imidazol-1-ylmethyl-2-[(4-methoxy-benzenesulfonyl)-methyl-amino]-benzamide] | 781 nM | 10 nM | – | – | 43 nM | 157 nM | –
COc1ccc(S(=O)(=O)N(Cc2c(F)c(F)c(OC)c(F)c2F)c2c(C)cc(C)cc2C(=O)NO)cc1 [Example 116, N-Hydroxy-2-[(4-methoxy-benzenesulfonyl)-(2,3,5,6-tetrafluoro-4-methoxy-benzyl)-amino]-3,5-dimethyl-benzamide] | 201 nM | 13 nM | 14 nM | 271 nM | – | – | –
COc1ccc(S(=O)(=O)N(C)c2c(C)cc(C#Cc3ccc(-c4ccccc4)cc3)cc2C(=O)NO)cc1 [Example 353, 5-Biphenyl-4-ylethynyl-N-hydroxy-2-[(4-methoxy-benzenesulfonyl)-methyl-amino]-3-methyl-benzamide] | – | 61 nM | 141 nM | 780 nM | – | – | 23%
COc1ccc(S(=O)(=O)N(Cc2cccnc2)c2c(C(=O)NO)cccc2C(=O)OC(C)(C)C)cc1 [Example 367, N-Hydroxy-2-[(4-methoxy-benzenesulfonyl)-pyridin-3-ylmethyl-amino]-isophthalamic acid tert-butyl ester] | 597 nM | 12 nM | 13 nM | 2700 nM | – | – | –
COCCOCOc1cccc(C(=O)NO)c1N(Cc1ccccc1)S(=O)(=O)c1ccc(OC)cc1 [Example 56, 2-[Benzyl-(4-methoxy-benzenesulfonyl)-amino]-N-hydroxy-3-(2-methoxy-ethoxymethoxy)-benzamide] | > 1000 nM | 57 nM | 138 nM | > 1000 nM | – | – | –
COc1ccc(S(=O)(=O)N(Cc2ccccc2)c2cccc(C)c2C(=O)NO)cc1 [Example 27, 2-[Benzyl-(4-methoxy-benzenesulfonyl)-amino]-N-hydroxy-6-methyl-benzamide] | 1570 nM | 440 nM | 717 nM | > 1000 nM | – | – | –
COc1ccc(S(=O)(=O)N(Cc2cccnc2)c2c(C)cc(-c3cccs3)cc2C(=O)NO)cc1 [Example 175, N-Hydroxy-2-[(4-methoxybenzenesulfonyl)-pyridin-3-ylmethyl-amino]-3-methyl-5-thiophen-2-yl benzamide] | 90 nM | 7 nM | 4 nM | 57 nM | – | – | –
COc1ccc(S(=O)(=O)N(Cc2ccccc2Br)c2c(C)cc(C)cc2C(=O)NO)cc1 [Example 118, 2-[(2-Bromo-benzyl)-(4-methoxy-benzenesulfonyl)-amino]-N-hydroxy-3,5-dimethyl-benzamide] | 248 nM | 345 nM | 229 nM | > 1000 nM | – | – | –
COc1ccc(S(=O)(=O)N(C)c2c(CN3CCCC3)cccc2C(=O)NO)cc1 [Example 310, N-Hydroxy-2-[(4-methoxy-benzenesulfonyl)-methyl-amino]-3-pyrrolidin-1-ylmethyl-benzamide] | 4800 nM | 21 nM | 101 nM | 154 nM | – | – | –
CCN(CC)Cc1cccc(C(=O)NO)c1N(C)S(=O)(=O)c1ccc(OC)cc1 [Example 191, 3-Diethylaminomethyl-N-hydroxy-2-[(4-methoxybenzenesulfonyl)-methylamino]benzamide] | 1240 nM | 10 nM | 67 nM | 210 nM | – | – | –
COc1ccc(S(=O)(=O)N(Cc2cccnc2)c2c(CO)cccc2C(=O)NO)cc1 [Example 340, N-Hydroxy-3-hydroxymethyl-2-[(4-methoxy-benzenesulfonyl)-pyridin-3-ylmethyl-amino]-benzamide] | 522 nM | 11 nM | 30 nM | 110 nM | – | – | –
COc1ccc(S(=O)(=O)N(Cc2ccc(OCCN3CCCCC3)cc2)c2c(C)cccc2C(=O)NO)cc1 [Example 393, N-Hydroxy-2-[[(4-methoxyphenyl)sulfonyl][[4-[2-(1-piperidinyl)ethoxy]phenyl]methyl]amino]-3-methylbenzamide] | 176 nM | 6.9 nM | – | – | 56 nM | 277 nM | –
CCCCCCCCN(C)C(=O)CCc1cc(C)c(N(C)S(=O)(=O)c2ccc(OC)cc2)c(C(=O)NO)c1 [Example 212, N-Hydroxy-2-[(4-methoxy-benzenesulfonyl)-methyl-amino]-3-methyl-5-[2-(methyl-octyl-carbamoyl)-ethyl]-benzamide] | 415 nM | 5.2 nM | 11 nM | 314 nM | – | – | –
C=CCN(CC=C)C(=O)C=Cc1cc(C)c(N(Cc2cccnc2)S(=O)(=O)c2ccc(OC)cc2)c(C(=O)NO)c1 [Example 233, 5-(2-Diallylcarbamoyl-vinyl)-N-hydroxy-2-[(4-methoxy-benzenesulfonyl)-pyridin-3-ylmethyl-amino]-3-methyl-benzamide] | 32 nM | 2.3 nM | 1.8 nM | 450 nM | – | – | –
COc1ccc(S(=O)(=O)N(Cc2ccccc2)c2c(C(=O)NO)cccc2[N+](=O)[O-])cc1 [Example 170, 2-[Benzyl-(4-methoxy-benzenesulfonyl)-amino]-N-hydroxy-3-nitro-benzamide] | 347 nM | 12 nM | 39 nM | 176 nM | – | – | –
COc1ccc(S(=O)(=O)N(Cc2ccccc2)c2c(OC(C)C)cccc2C(=O)NO)cc1 [Example 60, 2-[Benzyl-(4-methoxy-benzenesulfonyl)-amino]-N-hydroxy-3-isopropoxy-benzamide] | 152 nM | 7 nM | 15 nM | 232 nM | – | – | –
COc1ccc(S(=O)(=O)N(Cc2ccccc2)c2cc(C)ccc2C(=O)NO)cc1 [Example 26, 2-[Benzyl-(4-methoxy-benzenesulfonyl)-amino]-N-hydroxy-4-methyl-benzamide] | 884 nM | 346 nM | 982 nM | > 1000 nM | – | – | –
CCN(c1c(C)cc(C)cc1C(=O)NO)S(=O)(=O)c1ccc(OC)cc1 [Example 131, 2-[Ethyl-(4-methoxy-benzenesulfonyl)-amino]-N-hydroxy-3,5-dimethyl-benzamide] | 212 nM | 54 nM | 48 nM | 80 nM | – | – | –
